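Assay format: 96-well plates, 48-hour exposure. GI50 marks 50% less growth. TGI denotes the concentration required for complete inhibition of growth.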
Assays:
Test in all cases: NCI anticancer screen, dose series, 48 h
SK-OV-3 ovarian = tested on: SK-OV-3 ovarian
OVCAR-3 ovarian = tested on: OVCAR-3 ovarian
SF-295 CNS = tested on: SF-295 CNS
U251 CNS = tested on: U251 CNS
MDA-MB-435 = tested on: MDA-MB-435
HL-60(TB) leukemia = tested on: HL-60(TB) leukemia
OVCAR-8 ovarian = tested on: OVCAR-8 ovarian
SF-268 CNS = tested on: SF-268 CNS
NCI-H460 lung = tested on: NCI-H460 lung
MDA-MB-231 breast = tested on: MDA-MB-231 breast
EKVX NSCLC = tested on: EKVX NSCLC
ACHN renal = tested on: ACHN renal
IGROV1 ovarian = tested on: IGROV1 ovarian
SF-539 CNS = tested on: SF-539 CNS
UACC-257 melanoma = tested on: UACC-257 melanoma
M14 melanoma = tested on: M14 melanoma
KM12 colon = tested on: KM12 colon
OVCAR-4 ovarian = tested on: OVCAR-4 ovarian
K-562 leukemia = tested on: K-562 leukemia
A498 renal = tested on: A498 renal
MALME-3M melanoma = tested on: MALME-3M melanoma
NCI-H23 lung = tested on: NCI-H23 lung
COLO 205 colon = tested on: COLO 205 colon
OVCAR-5 ovarian = tested on: OVCAR-5 ovarian
SNB-75 CNS = tested on: SNB-75 CNS
PC-3 prostate = tested on: PC-3 prostate
SNB-19 CNS = tested on: SNB-19 CNS
SK-MEL-5 melanoma = tested on: SK-MEL-5 melanoma
SW-620 colon = tested on: SW-620 colon
SR leukemia = tested on: SR leukemia
T-47D breast = tested on: T-47D breast
HT29 colon = tested on: HT29 colon
SK-MEL-2 melanoma = tested on: SK-MEL-2 melanoma
UACC-62 melanoma = tested on: UACC-62 melanoma
RXF 393 renal = tested on: RXF 393 renal
CAKI-1 renal = tested on: CAKI-1 renal
MOLT-4 leukemia = tested on: MOLT-4 leukemia
SK-MEL-28 melanoma = tested on: SK-MEL-28 melanoma
DU-145 prostate = tested on: DU-145 prostate
MCF7 breast = tested on: MCF7 breast
HCC-2998 colon = tested on: HCC-2998 colon
NCI-H226 lung = tested on: NCI-H226 lung
HOP-92 NSCLC = tested on: HOP-92 NSCLC
HCT-116 colon = tested on: HCT-116 colon
HCT-15 colon = tested on: HCT-15 colon
LOX IMVI melanoma = tested on: LOX IMVI melanoma
UO-31 renal = tested on: UO-31 renal
TK-10 renal = tested on: TK-10 renal
NCI/ADR-RES ovarian = tested on: NCI/ADR-RES ovarian
NCI-H522 lung = tested on: NCI-H522 lung
A549 NSCLC = tested on: A549 NSCLC
HOP-62 NSCLC = tested on: HOP-62 NSCLC
CCRF-CEM leukemia = tested on: CCRF-CEM leukemia
786-0 renal = tested on: 786-0 renal
SN12C renal = tested on: SN12C renal
BT-549 breast = tested on: BT-549 breast
RPMI-8226 leukemia = tested on: RPMI-8226 leukemia
HS 578T breast = tested on: HS 578T breast

For `C=C(C)[C@@H]1CC[C@]2(CNCCO)CC[C@]3(C)[C@H](CC[C@@H]4[C@@]5(C)CCC(N)[C@@](C)(CO)[C@@H]5CC[C@]43C)[C@@H]12` (some centres undefined), the GI50 (SK-OV-3 ovarian) was 1950 nM, the TGI (SK-OV-3 ovarian) was 3.41 µM and the GI50 (OVCAR-3 ovarian) was 1750 nM. It also gave a TGI (OVCAR-3 ovarian) of 3.29 µM, a GI50 (SF-295 CNS) of 1760 nM and a TGI (SF-295 CNS) of 3.33 µM. The GI50 (U251 CNS) was 1690 nM, the TGI (U251 CNS) was 3.16 µM and the GI50 (MDA-MB-435) was 1750 nM. It also gave a TGI (MDA-MB-435) of 3.25 µM, a GI50 (HL-60(TB) leukemia) of 1330 nM and a TGI (HL-60(TB) leukemia) of 3.46 µM. It also gave a GI50 (OVCAR-8 ovarian) of 1760 nM, a TGI (OVCAR-8 ovarian) of 3.39 µM and a GI50 (SF-268 CNS) of 1750 nM. For the same compound, the TGI (SF-268 CNS) was 3.46 µM, the GI50 (NCI-H460 lung) was 1770 nM and the TGI (NCI-H460 lung) was 3.36 µM. The GI50 (MDA-MB-231 breast) was 1860 nM, the TGI (MDA-MB-231 breast) was 3.44 µM and the GI50 (EKVX NSCLC) was 1750 nM. For the same compound, the TGI (EKVX NSCLC) was 3.38 µM, the GI50 (ACHN renal) was 1990 nM and the TGI (ACHN renal) was 3.61 µM. For the same compound, the GI50 (IGROV1 ovarian) was 1980 nM, the TGI (IGROV1 ovarian) was 4.09 µM and the GI50 (SF-539 CNS) was 1770 nM. It also gave a TGI (SF-539 CNS) of 3.27 µM, a GI50 (UACC-257 melanoma) of 1850 nM and a TGI (UACC-257 melanoma) of 3.39 µM. The GI50 (M14 melanoma) was 1750 nM, the TGI (M14 melanoma) was 3.31 µM and the GI50 (KM12 colon) was 1710 nM. For the same compound, the TGI (KM12 colon) was 3.21 µM, the GI50 (OVCAR-4 ovarian) was 1900 nM and the TGI (OVCAR-4 ovarian) was 3.99 µM. For the same compound, the GI50 (K-562 leukemia) was 1500 nM, the TGI (K-562 leukemia) was 3.7 µM and the GI50 (A498 renal) was 1360 nM. It also gave a TGI (A498 renal) of 2850 nM, a GI50 (MALME-3M melanoma) of 1800 nM and a TGI (MALME-3M melanoma) of 3.31 µM. It also gave a GI50 (NCI-H23 lung) of 2140 nM, a TGI (NCI-H23 lung) of 3.95 µM and a GI50 (COLO 205 colon) of 1590 nM. For the same compound, the TGI (COLO 205 colon) was 3.08 µM, the GI50 (OVCAR-5 ovarian) was 2300 nM and the TGI (OVCAR-5 ovarian) was 4.79 µM. For the same compound, the GI50 (SNB-75 CNS) was 1580 nM, the TGI (SNB-75 CNS) was 3.1 µM and the GI50 (PC-3 prostate) was 1730 nM. For the same compound, the TGI (PC-3 prostate) was 3.62 µM, the GI50 (SNB-19 CNS) was 1830 nM and the TGI (SNB-19 CNS) was 3.36 µM. For the same compound, the GI50 (SK-MEL-5 melanoma) was 1740 nM, the TGI (SK-MEL-5 melanoma) was 3.14 µM and the GI50 (SW-620 colon) was 1930 nM. It also gave a TGI (SW-620 colon) of 3.88 µM, a GI50 (SR leukemia) of 1680 nM and a TGI (SR leukemia) of 4.08 µM. The GI50 (T-47D breast) was 2070 nM, the TGI (T-47D breast) was 3.97 µM and the GI50 (HT29 colon) was 1460 nM. For the same compound, the TGI (HT29 colon) was 3.18 µM, the GI50 (SK-MEL-2 melanoma) was 1770 nM and the TGI (SK-MEL-2 melanoma) was 3.27 µM. For the same compound, the GI50 (UACC-62 melanoma) was 1770 nM, the TGI (UACC-62 melanoma) was 3.19 µM and the GI50 (RXF 393 renal) was 1290 nM. The TGI (RXF 393 renal) was 2620 nM, the GI50 (CAKI-1 renal) was 2850 nM and the TGI (CAKI-1 renal) was 7.82 µM. It also gave a GI50 (MOLT-4 leukemia) of 1560 nM, a TGI (MOLT-4 leukemia) of 3.85 µM and a GI50 (SK-MEL-28 melanoma) of 1840 nM. The TGI (SK-MEL-28 melanoma) was 3.38 µM, the GI50 (DU-145 prostate) was 1650 nM and the TGI (DU-145 prostate) was 3.18 µM. The GI50 (MCF7 breast) was 1600 nM, the TGI (MCF7 breast) was 3.17 µM and the GI50 (HCC-2998 colon) was 1830 nM. For the same compound, the TGI (HCC-2998 colon) was 3.35 µM, the GI50 (NCI-H226 lung) was 2130 nM and the TGI (NCI-H226 lung) was 5.48 µM. The GI50 (HOP-92 NSCLC) was 1430 nM, the TGI (HOP-92 NSCLC) was 2940 nM and the GI50 (HCT-116 colon) was 1550 nM. It also gave a TGI (HCT-116 colon) of 2960 nM, a GI50 (HCT-15 colon) of 1800 nM and a TGI (HCT-15 colon) of 3.57 µM. It also gave a GI50 (LOX IMVI melanoma) of 1640 nM, a TGI (LOX IMVI melanoma) of 3.1 µM and a GI50 (UO-31 renal) of 1650 nM. The TGI (UO-31 renal) was 3.07 µM, the GI50 (TK-10 renal) was 1740 nM and the TGI (TK-10 renal) was 3.2 µM. It also gave a GI50 (NCI/ADR-RES ovarian) of 12.9 µM, a TGI (NCI/ADR-RES ovarian) of 26.7 µM and a GI50 (NCI-H522 lung) of 1950 nM. The TGI (NCI-H522 lung) was 3.69 µM, the GI50 (A549 NSCLC) was 1800 nM and the TGI (A549 NSCLC) was 3.38 µM. The GI50 (HOP-62 NSCLC) was 1790 nM, the TGI (HOP-62 NSCLC) was 3.28 µM and the GI50 (CCRF-CEM leukemia) was 2170 nM. It also gave a TGI (CCRF-CEM leukemia) of 5.3 µM, a GI50 (786-0 renal) of 1680 nM and a TGI (786-0 renal) of 3.11 µM. The GI50 (SN12C renal) was 1750 nM, the TGI (SN12C renal) was 3.41 µM and the GI50 (BT-549 breast) was 1740 nM. The TGI (BT-549 breast) was 3.33 µM, the GI50 (RPMI-8226 leukemia) was 1650 nM and the TGI (RPMI-8226 leukemia) was 3.91 µM.
With `Cc1ncc([N+](=O)[O-])n1CC(O)Cn1ccnc1[N+](=O)[O-]` (centres undefined) the TGI (OVCAR-3 ovarian) was over 100 µM, the TGI (SF-295 CNS) was over 100 µM and the TGI (U251 CNS) was over 100 µM. For the same compound, the TGI (HL-60(TB) leukemia) was over 100 µM, the TGI (OVCAR-8 ovarian) was over 100 µM and the TGI (SF-268 CNS) was over 100 µM. For the same compound, the TGI (NCI-H460 lung) was over 100 µM, the TGI (EKVX NSCLC) was over 100 µM and the TGI (ACHN renal) was over 100 µM. For the same compound, the TGI (SF-539 CNS) was over 100 µM, the TGI (UACC-257 melanoma) was over 100 µM and the TGI (KM12 colon) was over 100 µM. The TGI (HS 578T breast) was over 100 µM, the TGI (K-562 leukemia) was over 100 µM and the TGI (A498 renal) was over 100000 nM. It also gave a TGI (MALME-3M melanoma) of over 100 µM, a TGI (NCI-H23 lung) of over 100 µM and a TGI (OVCAR-5 ovarian) of over 100 µM. For the same compound, the TGI (SNB-75 CNS) was over 100 µM, the TGI (PC-3 prostate) was over 100 µM and the TGI (SK-MEL-5 melanoma) was over 100 µM. It also gave a TGI (SW-620 colon) of over 100 µM, a TGI (SR leukemia) of over 100 µM and a TGI (HT29 colon) of over 100 µM. The TGI (SK-MEL-2 melanoma) was over 100 µM, the TGI (MOLT-4 leukemia) was over 100 µM and the TGI (SK-MEL-28 melanoma) was over 100 µM. For the same compound, the TGI (MCF7 breast) was over 100 µM, the TGI (HCC-2998 colon) was over 100 µM and the TGI (NCI-H226 lung) was over 100 µM. It also gave a TGI (HCT-116 colon) of over 100000 nM, a TGI (HCT-15 colon) of over 100 µM and a TGI (TK-10 renal) of over 100 µM. For the same compound, the TGI (NCI-H522 lung) was over 100 µM, the TGI (A549 NSCLC) was over 100 µM and the TGI (HOP-62 NSCLC) was over 100 µM. It also gave a TGI (CCRF-CEM leukemia) of over 100 µM, a TGI (786-0 renal) of over 100 µM and a TGI (SN12C renal) of over 100 µM. The TGI (RPMI-8226 leukemia) was over 100 µM.

Source: PubChem BioAssay (NCI)
